# Columns and labels:
# Assay in all cases: biochemical
# Type in all cases: biochemical
# [1] = molecular target: T1, 363 human kinases (including Aurora A/B/C) (Homo sapiens, UniProt P41743); details: PKCiota; for remaining activity at 0.1 µM: 100 nM; for remaining activity at 0.1 µM / remaining activity at 0.5 µM: read-out: % Enzyme Activity (relative to DMSO controls)
# T1 sequence (P41743 1-596): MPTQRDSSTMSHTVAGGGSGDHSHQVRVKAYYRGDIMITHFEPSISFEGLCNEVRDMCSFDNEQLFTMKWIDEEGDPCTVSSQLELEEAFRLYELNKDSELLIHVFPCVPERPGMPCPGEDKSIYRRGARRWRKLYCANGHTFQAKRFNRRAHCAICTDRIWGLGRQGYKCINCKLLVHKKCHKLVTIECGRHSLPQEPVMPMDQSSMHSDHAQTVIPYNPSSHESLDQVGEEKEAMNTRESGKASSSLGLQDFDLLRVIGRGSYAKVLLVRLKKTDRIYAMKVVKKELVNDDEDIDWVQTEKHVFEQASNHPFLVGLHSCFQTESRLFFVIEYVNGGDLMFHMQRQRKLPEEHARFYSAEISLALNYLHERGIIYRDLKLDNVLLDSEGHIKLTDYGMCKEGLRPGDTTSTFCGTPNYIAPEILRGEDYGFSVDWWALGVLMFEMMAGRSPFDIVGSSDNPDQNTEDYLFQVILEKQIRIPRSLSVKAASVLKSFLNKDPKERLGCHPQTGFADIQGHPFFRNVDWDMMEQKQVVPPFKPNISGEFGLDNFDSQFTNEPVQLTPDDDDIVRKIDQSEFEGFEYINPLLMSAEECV
# Source text: (§1) However, the Aurora A/B selectivity ratios derived from our in vitro and in vivo data can be compared to prioritize inhibitors.
# [2] = molecular target: 363 human kinases (including Aurora A/B/C) (Homo sapiens, UniProt O00311); details: CDC7/DBF4, [ATP] 15 µM; for remaining activity at 0.1 µM: 100 nM; for remaining activity at 0.1 µM / remaining activity at 0.5 µM: read-out: % Enzyme Activity (relative to DMSO controls)
# Source text: as §1
# [3] = molecular target: 363 human kinases (including Aurora A/B/C) (Homo sapiens, UniProt O43353); details: RIPK2; for remaining activity at 0.1 µM: 100 nM; for remaining activity at 0.1 µM / remaining activity at 0.5 µM: read-out: % Enzyme Activity (relative to DMSO controls)
# Source text: as §1
# [4] = molecular target: 363 human kinases (including Aurora A/B/C) (Homo sapiens, UniProt Q9UQM7); details: CAMK2a, [ATP] 100 µM; for remaining activity at 0.1 µM: 100 nM; for remaining activity at 0.1 µM / remaining activity at 0.5 µM: read-out: % Enzyme Activity (relative to DMSO controls)
# Source text: as §1
# [5] = molecular target: 363 human kinases (including Aurora A/B/C) (Homo sapiens, UniProt P48729); details: CK1a1, [ATP] 20 µM; for remaining activity at 0.1 µM: 100 nM; for remaining activity at 0.1 µM / remaining activity at 0.5 µM: read-out: % Enzyme Activity (relative to DMSO controls)
# Source text: as §1
# [6] = molecular target: T2, 363 human kinases (including Aurora A/B/C) (Homo sapiens, UniProt Q05513); details: PKCzeta; for remaining activity at 0.1 µM: 100 nM; for remaining activity at 0.1 µM / remaining activity at 0.5 µM: read-out: % Enzyme Activity (relative to DMSO controls)
# T2 sequence (Q05513 1-592): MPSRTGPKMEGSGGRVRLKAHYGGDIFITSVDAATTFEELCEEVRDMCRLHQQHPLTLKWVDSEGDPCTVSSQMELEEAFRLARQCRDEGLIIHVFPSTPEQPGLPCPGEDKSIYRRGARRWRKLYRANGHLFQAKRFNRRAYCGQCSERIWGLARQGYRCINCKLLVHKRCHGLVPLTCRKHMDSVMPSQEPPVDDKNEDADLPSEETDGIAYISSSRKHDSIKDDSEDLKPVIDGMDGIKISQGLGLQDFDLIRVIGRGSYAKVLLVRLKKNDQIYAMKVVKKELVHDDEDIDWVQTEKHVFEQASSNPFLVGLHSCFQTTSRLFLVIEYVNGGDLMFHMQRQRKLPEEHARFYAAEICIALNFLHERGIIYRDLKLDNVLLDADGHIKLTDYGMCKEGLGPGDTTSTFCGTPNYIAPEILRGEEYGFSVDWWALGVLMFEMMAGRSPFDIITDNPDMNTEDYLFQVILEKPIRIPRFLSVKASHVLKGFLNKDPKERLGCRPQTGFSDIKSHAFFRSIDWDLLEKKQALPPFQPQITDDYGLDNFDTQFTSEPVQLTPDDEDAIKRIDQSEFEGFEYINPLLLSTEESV
# Source text: as §1
# [7] = molecular target: 363 human kinases (including Aurora A/B/C) (Homo sapiens, UniProt Q9UPE1); details: MSSK1/STK23; for remaining activity at 0.1 µM: 100 nM; for remaining activity at 0.1 µM / remaining activity at 0.5 µM: read-out: % Enzyme Activity (relative to DMSO controls)
# Source text: as §1
# [8] = molecular target: 363 human kinases (including Aurora A/B/C) (Homo sapiens, UniProt P17612); details: PKA; for remaining activity at 0.1 µM: 100 nM; for remaining activity at 0.1 µM / remaining activity at 0.5 µM: read-out: % Enzyme Activity (relative to DMSO controls)
# Source text: as §1
# [9] = molecular target: 363 human kinases (including Aurora A/B/C) (Homo sapiens, UniProt Q86UX6); details: STK32C/YANK3; for remaining activity at 0.1 µM: 100 nM; for remaining activity at 0.1 µM / remaining activity at 0.5 µM: read-out: % Enzyme Activity (relative to DMSO controls)
# Source text: as §1
# [10] = molecular target: T3, 363 human kinases (including Aurora A/B/C) (Homo sapiens, UniProt O43318); details: TAK1; for remaining activity at 0.1 µM: 100 nM; for remaining activity at 0.1 µM / remaining activity at 0.5 µM: read-out: % Enzyme Activity (relative to DMSO controls)
# T3 sequence (O43318 1-606): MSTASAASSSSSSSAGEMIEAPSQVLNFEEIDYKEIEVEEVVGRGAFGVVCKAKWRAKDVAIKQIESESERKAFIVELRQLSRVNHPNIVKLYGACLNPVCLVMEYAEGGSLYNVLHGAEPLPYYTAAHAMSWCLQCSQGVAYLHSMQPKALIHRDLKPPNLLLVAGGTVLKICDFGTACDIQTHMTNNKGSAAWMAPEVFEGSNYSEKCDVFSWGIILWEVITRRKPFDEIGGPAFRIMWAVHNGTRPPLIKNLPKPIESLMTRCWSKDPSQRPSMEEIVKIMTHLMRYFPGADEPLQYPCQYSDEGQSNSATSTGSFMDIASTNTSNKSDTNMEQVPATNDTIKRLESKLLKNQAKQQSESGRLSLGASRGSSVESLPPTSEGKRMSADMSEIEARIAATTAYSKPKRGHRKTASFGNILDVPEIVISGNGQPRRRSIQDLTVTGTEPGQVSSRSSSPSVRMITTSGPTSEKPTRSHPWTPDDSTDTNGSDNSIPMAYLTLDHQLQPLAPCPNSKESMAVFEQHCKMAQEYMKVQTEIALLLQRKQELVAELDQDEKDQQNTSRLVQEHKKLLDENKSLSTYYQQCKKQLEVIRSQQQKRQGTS
# Source text: as §1
# Sequence of 363 human kinases (including Aurora A/B/C) (Homo sapiens, UniProt Q9UQM7) (Q9UQM7 whole entry): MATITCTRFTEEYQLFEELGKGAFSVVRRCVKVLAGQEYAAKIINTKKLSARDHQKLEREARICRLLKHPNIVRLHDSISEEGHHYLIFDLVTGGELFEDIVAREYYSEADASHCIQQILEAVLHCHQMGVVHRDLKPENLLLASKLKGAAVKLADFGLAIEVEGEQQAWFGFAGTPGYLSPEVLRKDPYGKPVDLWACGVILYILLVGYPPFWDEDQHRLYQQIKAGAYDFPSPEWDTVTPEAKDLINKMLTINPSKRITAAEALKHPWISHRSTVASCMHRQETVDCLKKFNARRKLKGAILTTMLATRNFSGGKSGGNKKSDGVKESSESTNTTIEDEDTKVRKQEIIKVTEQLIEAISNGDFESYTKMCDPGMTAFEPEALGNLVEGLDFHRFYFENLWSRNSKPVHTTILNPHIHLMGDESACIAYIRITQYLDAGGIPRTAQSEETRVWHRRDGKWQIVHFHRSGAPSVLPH
# Sequence of 363 human kinases (including Aurora A/B/C) (Homo sapiens, UniProt P48729) (P48729 whole entry): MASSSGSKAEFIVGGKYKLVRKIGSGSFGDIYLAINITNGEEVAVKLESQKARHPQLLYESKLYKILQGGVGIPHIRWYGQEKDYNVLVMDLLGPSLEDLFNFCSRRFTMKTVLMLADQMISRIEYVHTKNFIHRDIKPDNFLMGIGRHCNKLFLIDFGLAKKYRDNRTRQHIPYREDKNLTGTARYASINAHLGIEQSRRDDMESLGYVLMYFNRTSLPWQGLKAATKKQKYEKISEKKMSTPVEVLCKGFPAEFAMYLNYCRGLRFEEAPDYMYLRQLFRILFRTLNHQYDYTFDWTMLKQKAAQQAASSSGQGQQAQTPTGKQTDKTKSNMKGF
# Sequence of 363 human kinases (including Aurora A/B/C) (Homo sapiens, UniProt Q9UPE1) (Q9UPE1 whole entry): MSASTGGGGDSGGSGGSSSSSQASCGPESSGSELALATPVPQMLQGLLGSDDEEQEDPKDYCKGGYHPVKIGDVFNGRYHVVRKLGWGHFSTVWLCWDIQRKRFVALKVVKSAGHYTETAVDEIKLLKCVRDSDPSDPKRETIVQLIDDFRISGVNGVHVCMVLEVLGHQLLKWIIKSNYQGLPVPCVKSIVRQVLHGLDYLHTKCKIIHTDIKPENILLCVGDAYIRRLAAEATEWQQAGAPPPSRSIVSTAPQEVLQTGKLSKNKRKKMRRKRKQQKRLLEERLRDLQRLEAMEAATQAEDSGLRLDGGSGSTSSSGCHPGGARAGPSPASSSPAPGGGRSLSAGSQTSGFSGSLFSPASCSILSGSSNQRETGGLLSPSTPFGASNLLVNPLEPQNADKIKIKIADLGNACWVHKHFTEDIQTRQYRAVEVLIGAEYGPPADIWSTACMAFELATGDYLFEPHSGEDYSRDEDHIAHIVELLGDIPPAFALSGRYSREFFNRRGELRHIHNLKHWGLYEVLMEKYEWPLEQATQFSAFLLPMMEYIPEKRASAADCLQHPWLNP
# Sequence of 363 human kinases (including Aurora A/B/C) (Homo sapiens, UniProt Q86UX6) (Q86UX6 whole entry): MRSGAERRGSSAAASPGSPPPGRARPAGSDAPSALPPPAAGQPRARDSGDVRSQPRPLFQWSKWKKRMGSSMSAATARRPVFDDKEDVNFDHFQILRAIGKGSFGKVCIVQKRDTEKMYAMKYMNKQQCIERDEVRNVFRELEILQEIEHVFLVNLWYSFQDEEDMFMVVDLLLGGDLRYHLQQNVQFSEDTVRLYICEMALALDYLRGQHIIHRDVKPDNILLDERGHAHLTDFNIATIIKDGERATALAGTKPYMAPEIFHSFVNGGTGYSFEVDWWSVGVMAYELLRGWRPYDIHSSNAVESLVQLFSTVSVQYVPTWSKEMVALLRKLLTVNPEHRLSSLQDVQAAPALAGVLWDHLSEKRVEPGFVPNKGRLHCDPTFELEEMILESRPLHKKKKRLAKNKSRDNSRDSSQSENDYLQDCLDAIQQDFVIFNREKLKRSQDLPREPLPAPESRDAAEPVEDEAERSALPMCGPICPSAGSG
# Sequence of 363 human kinases (including Aurora A/B/C) (Homo sapiens, UniProt O00311) (O00311 whole entry): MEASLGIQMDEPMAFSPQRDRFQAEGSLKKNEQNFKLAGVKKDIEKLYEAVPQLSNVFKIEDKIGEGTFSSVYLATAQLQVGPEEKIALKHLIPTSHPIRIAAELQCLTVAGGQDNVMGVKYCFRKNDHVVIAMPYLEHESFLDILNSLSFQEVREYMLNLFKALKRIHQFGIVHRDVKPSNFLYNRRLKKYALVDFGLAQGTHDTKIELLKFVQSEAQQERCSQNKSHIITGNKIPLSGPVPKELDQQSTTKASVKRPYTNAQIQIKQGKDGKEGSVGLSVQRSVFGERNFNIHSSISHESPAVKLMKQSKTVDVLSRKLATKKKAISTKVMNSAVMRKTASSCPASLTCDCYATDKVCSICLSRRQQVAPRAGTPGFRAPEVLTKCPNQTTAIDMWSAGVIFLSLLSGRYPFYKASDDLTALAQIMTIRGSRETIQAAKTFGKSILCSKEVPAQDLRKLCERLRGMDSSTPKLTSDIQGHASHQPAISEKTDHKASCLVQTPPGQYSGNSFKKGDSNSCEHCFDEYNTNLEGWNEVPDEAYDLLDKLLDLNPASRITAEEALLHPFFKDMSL
# Sequence of 363 human kinases (including Aurora A/B/C) (Homo sapiens, UniProt O43353) (O43353 whole entry): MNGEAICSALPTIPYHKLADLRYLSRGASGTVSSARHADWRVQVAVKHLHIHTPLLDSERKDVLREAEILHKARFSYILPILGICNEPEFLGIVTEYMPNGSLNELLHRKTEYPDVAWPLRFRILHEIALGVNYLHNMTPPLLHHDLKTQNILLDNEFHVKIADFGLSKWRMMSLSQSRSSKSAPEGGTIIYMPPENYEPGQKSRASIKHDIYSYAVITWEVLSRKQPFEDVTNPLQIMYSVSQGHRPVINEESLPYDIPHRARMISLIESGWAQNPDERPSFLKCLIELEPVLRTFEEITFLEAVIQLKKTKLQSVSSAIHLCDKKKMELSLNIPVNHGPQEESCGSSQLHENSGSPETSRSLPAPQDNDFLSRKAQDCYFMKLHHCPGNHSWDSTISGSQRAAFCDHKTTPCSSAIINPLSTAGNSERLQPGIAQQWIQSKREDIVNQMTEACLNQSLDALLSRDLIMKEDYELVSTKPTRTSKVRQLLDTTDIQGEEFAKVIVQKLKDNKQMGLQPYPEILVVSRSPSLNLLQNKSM
SMILES,remaining activity at 0.1 µM [1] [%],remaining activity at 0.1 µM [2] [%],remaining activity at 0.1 µM [3] [%],remaining activity at 0.1 µM [4] [%],remaining activity at 0.1 µM [5] [%],remaining activity at 0.1 µM [6] [%],remaining activity at 0.1 µM [7] [%],remaining activity at 0.1 µM [8] [%],remaining activity at 0.1 µM [9] [%],remaining activity at 0.1 µM [10] [%],remaining activity at 0.5 µM ([1]; 500 nM) [%],remaining activity at 0.5 µM ([2]; 500 nM) [%],remaining activity at 0.5 µM ([3]; 500 nM) [%],remaining activity at 0.5 µM ([4]; 500 nM) [%],remaining activity at 0.5 µM ([5]; 500 nM) [%],remaining activity at 0.5 µM ([6]; 500 nM) [%],remaining activity at 0.5 µM ([7]; 500 nM) [%],remaining activity at 0.5 µM ([8]; 500 nM) [%],remaining activity at 0.5 µM ([9]; 500 nM) [%],remaining activity at 0.5 µM ([10]; 500 nM) [%],further results
CCn1cc(-c2ccnc3[nH]c(-c4cccc(CN(C)C)c4)cc23)c(-c2ccc(NC(=O)N(C)C)cc2)n1 [GSK1070916],99.1,95.4,116,102,103,106,95.5,95.5,79.9,99,–,–,–,–,–,–,–,–,–,–,–
O=C(O)[C@]1(Cc2cccc(Nc3nccs3)n2)CC[C@@H](Oc2cccc(Cl)c2F)CC1 [MK-5108],94.3,103,89.1,95.4,89,99.2,99,100,124,93.8,102,96.2,60,101,101,99.2,85,96.4,96.6,79.1,–
O=C(c1cccc(Cl)c1F)N1CCN(Cc2cccc(Nc3nccs3)n2)CC1 [MK-8745],–,–,–,–,–,–,–,–,–,–,98,103,89.3,104,99.8,97.1,93.6,98.9,81.5,96.6,% Enzyme Activity (relative to DMSO controls) ([1]; 500 nM): 95.15%; % Enzyme Activity (relative to DMSO controls) ([2]; 500 nM): 101.19%; % Enzyme Activity (relative to DMSO controls) ([3]; 500 nM): 82.53%; % Enzyme Activity (relative to DMSO controls) ([4]; 500 nM): 101.40%; % Enzyme Activity (relative to DMSO controls) ([5]; 500 nM): 99.17%; % Enzyme Activity (relative to DMSO controls) ([6]; 500 nM): 96.81%; % Enzyme Activity (relative to DMSO controls) ([7]; 500 nM): 93.46%; % Enzyme Activity (relative to DMSO controls) ([8]; 500 nM): 96.39%; % Enzyme Activity (relative to DMSO controls) ([9]; 500 nM): 79.77%; % Enzyme Activity (relative to DMSO controls) ([10]; 500 nM): 93.95%

# Source: article PMC4685510, “A Cell Biologist’s Field Guide to Aurora Kinase Inhibitors” (Frontiers in Oncology, 2015)
